# Molecular target: PcrV (Pseudomonas aeruginosa, UniProt G3XD49)
# Assay: SPR library screening at 100 µM, PcrV versus deactivated control protein CAII
# Assay type: binding
# Conditions: Figure 2
# Procedure: The SPR screening was performed using the ProteOn^TM XPR36 Protein Interaction Array System (Bio-Rad Laboratories Inc., Hercules, CA, USA) with ProteOn GLH sensor chip (Bio-Rad Laboratories Inc., Hercules, CA, USA), and the results were analyzed with the ProteOn Manager software^TM (Bio-Rad Laboratories Inc., Hercules, CA, USA), Excel 2016 (Microsoft Office), and GraphPad Prism 7.04. All SPR experiments were performed at 25 °C. The multichannel module of the ProteOn system was in the vertical position during protein immobilization. The proteins were attached to the surface of a GLH sensor chip via amine coupling chemistry. A buffer scouting was performed to elucidate the optimal binding conditions of PcrV to the GLH sensor chip. First, channels 1–4 on the chip surface were activated using a 1:1 mixture of 40 mM 1-ethyl-3-(3-dimethylaminopropyl)carbodiimide hydrochloride (EDAC) (Bio-Rad Laboratories Inc., Hercules, CA, USA) and 10 mM N-hydroxysulfosuccinimide (sulfo-NHS, Bio-Rad Laboratories Inc., Hercules, CA, USA) for 300 s at 30 µL/min. Next, the proteins PcrV (33,398.6 Da, 6.37 mg/mL) was diluted in 10 mM NaOAc (pH 4, 4.5, and 5) to 0.05 mg/mL. PcrV was immobilized in channel 1–3 for 540 s at 30 µL/min. […] The final amount of immobilized protein was measured in resonance units (RU) relative to the signal of the baseline prior activation. […]
# Chain of PcrV (G3XD49 entry or part of it): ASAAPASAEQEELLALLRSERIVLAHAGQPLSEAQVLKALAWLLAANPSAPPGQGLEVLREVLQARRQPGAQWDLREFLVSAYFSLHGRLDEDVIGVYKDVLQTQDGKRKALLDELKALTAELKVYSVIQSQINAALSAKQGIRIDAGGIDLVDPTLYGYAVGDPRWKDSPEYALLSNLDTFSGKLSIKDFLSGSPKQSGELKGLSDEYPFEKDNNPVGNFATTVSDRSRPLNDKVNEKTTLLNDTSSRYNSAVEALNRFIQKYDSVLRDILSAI
smiles,measurement,value
Cc1c(Br)ccc(OCCCC(=O)O)c1C [Compound H1],Selectivity of binding to PcrV over CAII in SPR screening,selective PcrV binders

# Reference: article PMC7824769, “Identification of Small Molecules Blocking the Pseudomonas aeruginosa Type III Secretion System Protein PcrV” (Biomolecules, 2021)
